Test results as given in patent US11696913B2, “Prolonged ectoparasite-controlling agent for animal” (MITSUI CHEMICALS AGRO, INC., priority 2017, dated 2023).
Read-outs that look alike come from different tables or passages of the source.

Key:
[1] = system: Ctenocephalides felis; assay: In vitro contact test with fleas; settings: read-out: insecticidal activity; for pest or weed control at 0.2 µg/cm2, 0.2 µg/cm2: dose 0.2 μg/cm^2, dead or moribund fleas after 48 h; for pest or weed control at 1 µg/cm2, 1 µg/cm2: dose 1 μg/cm^2, dead or moribund fleas after 48 h
Summary of the method: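 Activity is the percentage of fleas dead or moribund at 48 h, judged by immobility or uncoordinated movement after tapping. Tubes were coated by evaporating acetone solutions (900 ppm gives 5 μg/cm^2), then held 5-10 adult fleas of both sexes at room temperature and ambient humidity.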

[2] = system: Amblyomma americanum; assay: In vitro contact test with hard ticks (Amblyomma americanum nymphs); settings: read-out: acaricidal activity; for pest or weed control at 0.2 µg/cm2, 0.2 µg/cm2: dose 0.2 μg/cm^2, 48 h; for pest or weed control at 1 µg/cm2, 1 µg/cm2: dose 1 μg/cm^2, 48 h
Summary of the method: (§1)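 Acaricidal activity = % ticks dead or moribund after 48 h contact with acetone-deposited compound on vial walls (e.g., 900 ppm solution → 5 μg/cm^2). Ambient conditions for R. sanguineus, 21° C./85% rel. hum. for other species; heat challenge at 45-50° C. separated climbers from moribund ticks.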

[3] = system: Ixodes ricinus; assay: In vitro contact test with adult hard ticks (Ixodes ricinus); settings: read-out: acaricidal activity; for pest or weed control at 5 µg/cm2, 5 µg/cm2: dose 5 μg/cm^2, 48 h
Summary of the method: as §1

[4] = system: Rhipicephalus sanguineus; assay: In vitro contact test with adult hard ticks (Rhipicephalus sanguineus); settings: read-out: acaricidal activity; for pest or weed control at 0.2 µg/cm2, 0.2 µg/cm2: dose 0.2 μg/cm^2, 48 h; for pest or weed control at 1 µg/cm2, 1 µg/cm2: dose 1 μg/cm^2, 48 h; for pest or weed control at 0.04 µg/cm2, 0.04 µg/cm2: dose 0.04 μg/cm^2, 48 h
Summary of the method: as §1

[5] = system: Rhipicephalus (Boophilus) microplus; assay: In vitro injection test with Rhipicephalus (Boophilus) microplus (BOOPMI Inj); settings: 168 h, laid fertile eggs after 7 days, read-out: acaricidal activity; for pest or weed control at 0.00016 mg: dose 0.16 μg/animal injected; for pest or weed control at 0.0008 mg: dose 0.8 μg/animal injected; for pest or weed control at 32 ng: dose 0.032 μg/animal injected
Summary of the method: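 Five engorged adult females each get a 1 μl abdominal injection of compound dissolved and diluted in DMSO. Kept 7 days at 28° C./85% rel. hum.; percent activity rates egg laying and egg fertility (0% all fertile, 100% none laid or infertile).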

[6] = system: Ctenocephalides felis; assay: Ctenocephalides felis in-vitro feeding test with fleas (CTECFE oral); settings: 48 hours, read-out: insecticidal feeding activity; for pest or weed control at 0.032 ppm: dose 0.032 ppm in citrated cattle blood; for pest or weed control at 0.16 ppm: dose 0.16 ppm in citrated cattle blood; for pest or weed control at 0.8 ppm: dose 0.8 ppm in citrated cattle blood; for pest or weed control at 4 ppm: dose 4 ppm in citrated cattle blood
Summary of the method: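 Scored as percent fleas killed (0–100%) 48 hours after feeding began. Compound, dissolved in DMSO and diluted into citrated cattle blood, was offered via a parafilm membrane to roughly 20 adult male and female C. felis at about 37° C.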

[7] = system: Spodoptera litura; assay: Insecticidal testing against common cutworm; format: in vivo; settings: foliar, 144 h, concentration 100 ppm, cabbage leaf dip, second-stage larvae, after 6 days, read-out: pesticidal rate
Text: Insecticidal Testing Against Common Cutworm (Spodoptera litura)

[8] = system: Plutella xylostella; assay: Insecticidal testing against diamondback moth; format: in vivo; settings: foliar, 144 h, concentration 100 ppm, cabbage leaf dip, third-stage larvae, after 6 days, read-out: pesticidal rate
Text: Insecticidal Testing Against Diamondback Moth (Plutella xylostella)

[9] = system: Laodelphax striatellus; assay: Insecticidal testing against small brown planthopper; format: in vivo; settings: 144 h, concentration 100 ppm, sprayed rice seedlings, after 6 days, read-out: pesticidal rate
Summary of the method: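 Acetone solution of compound at a set concentration sprayed onto rice seedlings, air-dried, then exposed to 10 planthoppers (one group). Held at 25° C; survival rate recorded after 6 days.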

[10] = system: Dermacentor variabilis; assay: In vitro contact test with adult hard ticks (Dermacentor variabilis); settings: read-out: acaricidal activity; for pest or weed control at 1 µg/cm2, 1 µg/cm2: dose 1 μg/cm^2, 48 h; for pest or weed control at 0.2 µg/cm2, 0.2 µg/cm2: dose 0.2 μg/cm^2, 48 h
Summary of the method: as §1

Compound | pest or weed control at 0.2 µg/cm2, 0.2 µg/cm2 [1] [%] | pest or weed control at 1 µg/cm2, 1 µg/cm2 [1] [%] | pest or weed control at 0.2 µg/cm2, 0.2 µg/cm2 [2] [%] | pest or weed control at 1 µg/cm2, 1 µg/cm2 [2] [%] | pest or weed control at 1 µg/cm2, 1 µg/cm2 ([3]; dose 1 μg/cm^2, 48 h) [%] | pest or weed control at 5 µg/cm2, 5 µg/cm2 [3] [%] | pest or weed control at 0.2 µg/cm2, 0.2 µg/cm2 [4] [%] | pest or weed control at 1 µg/cm2, 1 µg/cm2 [4] [%] | pest or weed control at 0.00016 mg [5] [%] | pest or weed control at 0.0008 mg [5] [%] | pest or weed control at 0.032 ppm [6] [%] | pest or weed control at 0.16 ppm [6] [%] | pest or weed control at 0.8 ppm [6] [%] | pest or weed control at 4 ppm [6] [%] | pest or weed control at 100 ppm [7] [%] | pest or weed control at 100 ppm [8] [%] | pest or weed control at 100 ppm [9] [%] | pest or weed control at 1 µg/cm2, 1 µg/cm2 [10] [%] | pest or weed control at 0.04 µg/cm2, 0.04 µg/cm2 [4] [%] | pest or weed control at 32 ng [5] [%] | other results
O=C(Nc1cccc(C(=O)Nc2c(I)cc(C(F)(C(F)(F)F)C(F)(F)F)cc2[S+]([O-])C(F)(F)F)c1F)c1ccc(F)cc1 (stereo not shown) [Compound 65] | 95 | 95 | 90 | 90 | 90 | 90 | 90 | 90 | 100 | 100 | 95 | 95 | 95 | 95 | ≥ 70 | ≥ 70 | ≥ 70 | – | – | – | –
CN(C(=O)c1ccc(F)cc1)c1cccc(C(=O)Nc2c(Cl)cc(C(F)(C(F)(F)F)C(F)(F)F)cc2C(F)(F)F)c1F [Compound 68] | 95 | 95 | – | – | 90 | 90 | 90 | 90 | 100 | 100 | 95 | 95 | 95 | 95 | ≥ 70 | ≥ 70 | ≥ 70 | 90 | 90 | – | –
CN(C(=O)c1ccc(F)cc1)c1cccc(C(=O)Nc2c(Br)cc(C(F)(C(F)(F)F)C(F)(F)F)cc2OC(F)(F)F)c1F [Compound 72] | 95 | 95 | – | – | 90 | 90 | 90 | 90 | 100 | 100 | – | – | 95 | 95 | ≥ 70 | ≥ 70 | ≥ 70 | 90 | 90 | 100 | pest or weed control at 0.2 µg/cm2, 0.2 µg/cm2 [10]: 90%; pest or weed control at 0.2 µg/cm2, 0.2 µg/cm2 ([3]; dose 0.2 μg/cm^2, 48 h): 90%
O=C(Nc1cc(C(=O)Nc2c(I)cc(C(F)(C(F)(F)F)C(F)(F)F)cc2C(F)(F)F)ccc1F)c1ccc(F)cc1 [Compound 84] | – | – | 90 | 90 | 90 | 90 | 90 | 90 | 100 | 100 | – | 95 | 95 | 95 | ≥ 70 | ≥ 70 | ≥ 70 | 90 | 90 | 100 | pest or weed control at 0.2 µg/cm2, 0.2 µg/cm2 [10]: 90%; pest or weed control at 0.2 µg/cm2, 0.2 µg/cm2 ([3]; dose 0.2 μg/cm^2, 48 h): 90%
O=C(Nc1cccc(C(=O)Nc2c(I)cc(C(F)(C(F)(F)F)C(F)(F)F)cc2C(F)(F)F)c1F)c1ccc(F)nc1 [Compound 116, 6-fluoro-N-(2-fluoro-3-((2-iodo-4-(perfluoropropan-2-yl)-6-(trifluoromethyl)phenyl)carbamoyl)phenyl)nicotinamide] | 95 | 95 | 90 | 90 | – | – | – | 90 | 100 | 100 | 95 | 95 | 95 | 95 | ≥ 70 | ≥ 70 | ≥ 70 | – | – | 100 | pest or weed control at 0.04 µg/cm2, 0.04 µg/cm2 ([1]; dose 0.04 μg/cm^2, dead or moribund fleas after 48 h): 95%; pest or weed control at 0.2 µg/cm2, 0.2 µg/cm2 ([3]; 48 h): 90%; pest or weed control at 1 µg/cm2, 1 µg/cm2 ([3]; 48 h): 90%; pest or weed control at 0.0064 ppm ([6]; dose 0.0064 ppm in citrated cattle blood): 95%
O=C(Nc1cccc(C(=O)Nc2c(I)cc(C(F)(C(F)(F)F)C(F)(F)F)cc2OC(F)(F)F)c1F)c1ccc(C(F)(F)F)nc1 [Compound 118, N-(2-fluoro-3-((2-iodo-4-(perfluoropropan-2-yl)-6-(trifluoromethoxy)phenyl)carbamoyl)phenyl)-6-(trifluoromethyl)nicotinamide] | 95 | 95 | 90 | 90 | 90 | 90 | 90 | 90 | 100 | 100 | 95 | 95 | 95 | 95 | ≥ 70 | ≥ 70 | ≥ 70 | – | – | 100 | pest or weed control at 0.2 µg/cm2, 0.2 µg/cm2 ([3]; dose 0.2 μg/cm^2, 48 h): 90%
